Drawing on ChEMBL document CHEMBL3045445, “Structural features of GABAA receptor antagonists: pharmacophore modeling and 3D-QSAR studies” (Med Chem Res, 2013), this text covers Ki and pKi for 17 compounds.

The test is described as follows: Displacement of [3H]muscimol from GABAA receptor in Sprague-Dawley rat brain membrane`after 60 mins by TopCount microplate scintillation counting analysis. A general note: Displacement assays read how much labelled ligand stays bound in the presence of the test substance.

The term Ki denotes the dissociation constant of the complex between target and ligand, obtained from inhibition or displacement. Lower therefore signals higher affinity. As usually defined, the pKi is −log10 of the Ki, conventionally taken in molar units. A low value points to a high Ki.

The compound `CC1(c2cc(O)no2)CCNCC1` had a Ki of 37000 nM and a pKi of 4.43.

Consider `Oc1noc(C2CCNCC2)c1Cc1cccc2ccccc12`, for which affinity was put at a Ki of 100 nM and the negative logarithm of the Ki (pKi) turned out to be 7.

With `Oc1noc(C2CCNCC2)c1CCCC(c1ccccc1)c1ccccc1`, the Ki was 700 nM and the pKi stood at 6.16.

Compound `Oc1noc(C2CCNCC2)c1C(c1ccccc1)c1ccccc1` displayed a Ki of 960 nM and a pKi of 6.02.

Compound `Oc1noc(C2CCNCC2)c1CCc1ccc2ccccc2c1` registered a Ki of 490 nM and a pKi of 6.31.

Compound `Oc1noc(C2CCNCC2)c1Cc1ccc2ccccc2c1Cl` returned a Ki of 16 nM and a pKi of 7.8.

`Oc1noc(C2CCNCC2)c1Cc1ccc2ccc(Br)cc2c1` yielded a Ki of 109 nM and a pKi of 6.96.

As for `CSc1c(Cc2c(O)noc2C2CCNCC2)ccc2ccccc12`, the affinity corresponds to a Ki of 28 nM and the pKi stood at 7.55.

`Oc1noc(C2CCNCC2)c1Cc1ccc2ccccc2c1-c1ccccc1`: the Ki was found to be 21 nM and the pKi was determined as 7.68.

`On1nc(Cc2cccc3ccccc23)c(C2CCNCC2)c1-c1ccccc1` came in with an inhibitory constant (Ki) of 22 nM and a pKi of 7.66.

For the compound `On1nc(-c2ccccc2)c(C2CCNCC2)c1Cc1cccc2ccccc12`, the affinity, expressed as Ki, was 1500 nM and the pKi is reported as 5.82.

`Oc1noc(C2CCNCC2)c1Cc1ccc2c(Br)cccc2c1` yielded a Ki of 80 nM and a pKi of 7.1.

For the compound `Oc1noc(C2CCNCC2)c1Cc1ccc2cccc(Br)c2c1`, the Ki was 45 nM and the pKi is listed as 7.35.

The compound `Oc1noc(C2CCNCC2)c1-c1cccc2ccccc12` returned a Ki of 820 nM and a pKi of 6.09.

Consider `N#Cc1c(Cc2c(O)noc2C2CCNCC2)ccc2ccccc12`, for which the Ki worked out at 28 nM and the pKi worked out at 7.55.

Take `Oc1noc(C2CCNCC2)c1Cc1ccc2ccccc2c1F`: affinity was put at a Ki of 19 nM and the pKi was found to be 7.72.

`Oc1noc(C2CCNCC2)c1-c1ccc2ccccc2c1` had a Ki of 36 nM and a pKi of 7.44.
